Assay results from PubChem BioAssay (NCI).
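Values below derive from 48-hour exposures of cells grown in 96-well plates, with endpoints linearly interpolated between the two concentrations bracketing the appropriate inhibition level. TGI: total growth inhibition.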

What was measured:
Assay in all cases: inhibition of tumour cell growth, NCI panel, 48 h
ACHN renal = system: ACHN renal
CCRF-CEM leukemia = system: CCRF-CEM leukemia
HS 578T breast = system: HS 578T breast
HT29 colon = system: HT29 colon
MDA-MB-231 breast = system: MDA-MB-231 breast
NCI-H226 lung = system: NCI-H226 lung
RXF 393 renal = system: RXF 393 renal
SF-539 CNS = system: SF-539 CNS
SK-MEL-2 melanoma = system: SK-MEL-2 melanoma
SK-MEL-5 melanoma = system: SK-MEL-5 melanoma
SNB-75 CNS = system: SNB-75 CNS
TK-10 renal = system: TK-10 renal
UACC-257 melanoma = system: UACC-257 melanoma

## COc1cc(Nc2nc3cc(C(F)(F)F)ccc3nc2C(=O)O)cc(OC)c1OC
ACHN renal
  TGI: > 100 µM
CCRF-CEM leukemia
  TGI: 90.8 µM
HS 578T breast
  TGI: > 100 µM
HT29 colon
  TGI: > 100 µM
MDA-MB-231 breast
  TGI: 70.3 µM
NCI-H226 lung
  TGI: > 100 µM
RXF 393 renal
  TGI: 70.2 µM
SF-539 CNS
  TGI: > 100 µM
SK-MEL-2 melanoma
  TGI: 38.9 µM
SK-MEL-5 melanoma
  TGI: > 100 µM
SNB-75 CNS
  TGI: > 100 µM
TK-10 renal
  TGI: > 100 µM
UACC-257 melanoma
  TGI: > 100 µM
